Counter-ions that a name gives are not always drawn. Like-named read-outs stand apart in the source and are kept apart here.

The conditions of data set [1]: cited from earlier work.
Data set [2] in a line: Solubility of the agrochemically active ingredient in the aqueous solution of water-soluble compound (B). Type of data set: physicochemical. Here is the method:
While the method for measuring the solubility of the agrochemically active ingredient as the component (A) in the aqueous solution of the water-soluble compound as the component (B) is not particularly limitative, the method contains, for example, adding an excess amount of the agrochemically active ingredient in an aqueous solution in which given quantities of the water-soluble compound are dissolved in water, filtering the solution with a membrane filter after stirring at room temperature for several hours, and analyzing the concentration in the filtrate according to an analysis method of the respective agrochemically active ingredients to calculate the solubility. The concentrations of the water-soluble compounds for allowing the solubility of the respective agrochemically active ingredients to be smaller than 2 g/100 ml are determined in the invention by preparing aqueous solutions with different concentrations of variety of the component (B) such as an inorganic acid, the specified organic acid and alkali metal salt and ammonium salt thereof and by measuring the solubility of the agrochemically active ingredient in each aqueous solution.

Turning to `CN/C(=N/CC1CCOC1)N[N+](=O)[O-]` (racemic) [dinotefuran, (EZ)-(RS)-1-methyl-2-nitro-3-(tetrahydro-3-furylmethyl)guanidine], the solubility in water in data set [1] (20 °C, pure water) is listed as 5.43 g/100 ml. Regarding `Oc1cccc2cccnc12` [8-hydroxyquinoline sulfate, bis(8-hydroxyquinolinium)sulfate], the solubility in water in data set [1] (20 °C, pure water) is recorded as 30 g/100 ml. For `Cc1cc(Cl)ccc1OCC(=O)[O-].[Na+]` [MCPA-sodium, sodium (4-chloro-2-methylphenoxy)acetate], the solubility in water in data set [1] (water) is listed as 27 g/100 ml.

Regarding `COC(=O)NS(=O)(=O)c1ccc(N)cc1.[Ca]` [asulam-calcium, calcium methyl sulfanilylcarbamate], the solubility in water in data set [1] (20 °C, pure water) is listed as 20 g/100 ml.

For the molecule `COc1cc(OC)nc(Oc2cccc(Oc3nc(OC)cc(OC)n3)c2C(=O)[O-])n1.[Na+]` [bispyribac-sodium, sodium 2,6-bis(4,6-dimethoxypyrimidin-2-yloxy)benzoate], the solubility (in general, how much of the substance goes into solution per volume) in data set [2] (aqueous ammonium hydrogencarbonate, 3.1 parts ammonium hydrogencarbonate in 75.4 parts water (Example 4)) was found to be 9000 µg/mL; in data set [2] (aqueous sodium chloride, 3.1 parts sodium chloride in 75.4 parts water (Example 3)), 6000 µg/mL; in data set [2] (aqueous sodium hydrogencarbonate/sodium carbonate, 1.4 parts sodium hydrogencarbonate and 0.16 part sodium carbonate in 76.94 parts water (Comparative Example 2)), 30000 µg/mL; in data set [2] (aqueous sodium hydrogencarbonate/sodium carbonate, 1.6 parts sodium hydrogencarbonate and 0.18 part sodium carbonate in 46.77 parts water (Example 1)), 14000 µg/mL; in data set [2] (aqueous sodium hydrogencarbonate/sodium carbonate, 3.9 parts sodium hydrogencarbonate and 0.44 part sodium carbonate in 74.16 parts water (Example 2)), 4000 µg/mL. Also, in data set [1] (20 °C, pure water), the solubility in water is given as 7.3 g/100 ml. For `CCc1c(C(=O)[O-])c(=O)cnn1-c1ccc(Cl)cc1.[K+]` [clofencet-potassium, potassium 2-(4-chlorophenyl)-3-ethyl-2,5-dihydro-5-oxopyridazine-4-carboxylate], in data set [1] (20 °C, pure water), the solubility in water result is listed as “at least 65.5 g/100 ml”. In data set [2] (aqueous acetic acid/sodium acetate, 0.23 part acetic acid and 2.8 parts sodium acetate in 73.77 parts water (Example 5)), `COc1nn(C(=O)NS(=O)(=O)c2ccccc2OC(F)(F)F)c(=O)n1C` [flucarbazone-sodium, 4,5-dihydro-3-methoxy-4-methyl-5-oxo-N-[(2-(trifluoromethoxy)phenylsulfonyl]-1 H-1,2,4-triazole-1-carboxyamidesodium salt] showed a solubility of 11000 µg/mL. Also, the solubility in water in data set [1] (20 °C, pure water) is listed as 4.4 g/100 ml. On to `COC(=O)c1ccc(C(F)(F)F)nc1S(=O)(=O)NC(=O)Nc1nc(OC)cc(OC)n1.[Na]` [flupyrsulfuron-methyl-sodium, methyl 2-(4,6-dimethoxypyrimidine-2-ylcarbamoylsulfamoyl)-6-trifluoromethylnicotinate monosodium salt], for which, in data set [1] (20 °C, pure water), the solubility in water is given as 6.3 g/100 ml. Consider `COc1cc(OC)nc(Sc2cccc(Cl)c2C(=O)[O-])n1.[Na+]` [pyrithiobac-sodium, sodium 2-chloro-6-(4,6-dimethoxypyrimidin-2-ylthio)benzoate], for which the solubility in water in data set [1] (20 °C, at pH 5) is 26.4 g/100 ml.

The values are drawn from patent EP1618784A1, “AQUEOUS AGRICULTURAL-CHEMICAL SUSPENSION COMPOSITION” (KUMIAI CHEMICAL INDUSTRY CO., LTD., priority 2003, dated 2004).
